Reference: US11833232B2, “Deodorant compositions with natural wax” (The Procter & Gamble Company, priority 2020, dated 2023)
Counter-ions that a name gives are not always drawn.

Experiments:
[1] = tested on: two key underarm bacteria strains; assay: Raw material microbial inhibition, verdict in words over both strains; type: cell-based, Corynebacterium mucofaciens; Staphylococcus epidermidis
Description: The Tier 1 Anaerobic MIC Assay test method to generate the data of Table 2 is described below.
(§1) Tier 1 Anaerobic MIC Assay
The data in Table 2 above was generated with the following test method.
3. Microbial Strains • Staphylococcus epidermidis (clinical isolate) • Corynebacterium mucofaciens (clinical isolate)
4. Test Procedure • Inoculum Preparation • Prior to testing streak organisms for isolation on BHI with 1% Tween 80 plates, wrap with parafilm and place in 37° C. incubator. When isolated colonies appear remove one representative colony from each plate and place each in 5 ml of BHI with 1% Tween 80 media. Incubate at 37° C. with shaking overnight. Inoculate 20 ml BHI with 1% Tween 80 (per 96 deep well plate to be tested) with 20 ul of the overnight culture (1-1000 dilution). • Master Plate Preparation • Compounds/formulations to be tested are diluted across a 96 deep well plate as shown below in Table 3 (for a 1% stock solution). […] 800 ul each 1% stock solution+positive control are added to wells C1 through H1. […] 400 ul is then removed from #1 well added to the #2 well and mixed. This is then continued across the plate resulting in a 50% dilution between wells across the plate (this can be easily accomplished with an automatic 8 channel Matrix pipette set to withdraw, dispense and mix).
In row A of a 96 deep well plate pipette 180 ul of sterile BHI with 1% Tween 80 as a negative growth control. All other wells receive 180 ul of inoculum. From the master plate introduce 20 ul to the corresponding row in the test plate using an 8-channel pipette. Loaded plates are placed on a plate shaker in the 37° C. incubator and incubated overnight. The next day read the O.D. 600 on a plate reader. The MIC is the last well from the right that has no bacterial growth.

S. epidermidis = assay: Tier 1 Anaerobic MIC Assay; type: cell-based, Staphylococcus epidermidis (clinical isolate); conditions: raw material, 37° C. overnight, O.D. 600
Description: as §1
(§2) The data in Table 2 above was generated with the following test method. The purpose of this assay is to determine if a compound or formulation has an antimicrobial effect in vitro.
(§3) It is understood that when not specifically noted in this procedure: • a) All materials, reagents and equipment required for this procedure are of appropriate design and condition of cleanliness and/or sterility as determined by their intended use. • b) The operator has been trained in aseptic technique and has been qualified to perform the procedure and accurately interpret the results. • c) All media required for this procedure was manufactured by a reputable commercial source egg. Difco, Merck etc. and has been stored and prepared as per manufacturer's instructions. • d) All routine laboratory controls, including but not limited to, media function and growth promotion tests, verification of sterility and use of positive and negative controls are being conducted.
(§4) Procedure: (All procedures performed in anaerobic chamber except where noted)
1. […]
(§5) In row A of a 96 deep well plate pipette 180 ul of sterile BHI with 1% Tween 80 as a negative growth control. […] The next day read the O.D. 600 on a plate reader. […]

C. mucofaciens = assay: Tier 1 Anaerobic MIC Assay; type: cell-based, Corynebacterium mucofaciens (clinical isolate); conditions: raw material, 37° C. overnight, O.D. 600
Description: as §1, §2, §3, §4
1. […]
as §5

microbial inhibition concentration (MIC) (S. epidermidis) | microbial inhibition concentration (MIC) (C. mucofaciens) | Structure (SMILES) | performance against the bacteria as raw materials (in words) [1]
 |  | O=C([O-])[O-].[Ca+2] [Ca Carbonate 50 mg/ml H2O ins, calcium carbonate] | performing moderately well
10 ppm | < 5 ppm | Cc1cc(CC(C)CC(C)(C)C)n(O)c(=O)c1.NCCO (stereo not drawn) [100 mg/ml piroctone olamine in H2O, piroctone olamine] | perform particularly well
 |  | COC(=O)CCC(=O)OC [Dimethyl Succinate 98% ETOH, Dimethyl Succinate] | performing well
 |  | C=CCc1ccc(O)c(OC)c1 [Eugenol 99% ETOH, Eugenol] | performing well
7 ppm | <2 ppm | N=C(N)c1ccc(OCCCCCCOc2ccc(C(=N)N)cc2)cc1 [Hexamidine 36 mg/ml H2O, Hexamidine] | perform particularly well
 |  | CC(C)=CCCC(C)=CC=O [Citral 96% ETOH, Citral] | performing well
 |  | CCOC(=O)CC(O)(CC(=O)OCC)C(=O)OCC [100% Triethyl citrate, Triethyl citrate] | performing well
 |  | C=CCCCCCCCCC(=O)N[C@@H](Cc1ccccc1)C(=O)O [Sepiwhite 40 mg/ml H2O ins] | performing well
